Measured values: patent publication US4822786A, “Cephalosporin compounds, and antibacterial agents” (Kaken Pharmaceutical Co., Ltd., priority 1986, dated 1989)
≈ marks a conversion by molar mass, not a printed value. Read-outs that look alike come from different tables or passages of the source.

Assays:
[1] = tested on: Enterobacter cloacae Nek 39; experiment: minimum inhibitory concentration, agar plate dilution method; format: cell-based
Escherichia coli ML 4707 [2] = experiment: infection-preventive effects in mice (intraperitoneal infection, survival); format: in vivo, JCL:JCR type male mice; settings: ML4707, ip, 168 h, E. coli ML 4707, 1.1 × 10^6 cells/mouse i.p., no mucin, compound hypodermically 1 hour after infection, 7-day survival
[3] = tested on: Pseudomonas aeruginosa K-13; experiment: minimum inhibitory concentration, agar plate dilution method; format: cell-based
Escherichia coli ML 4707 [4] = experiment: as above; format: cell-based; settings: ML4707, E. coli ML 4707, inoculated amount of cells 10^6 CFU/ml, Muller-Hinton agar, read-out: minimum inhibitory concentration (M.I.C.)
[5] = tested on: Klebsiella pneumoniae No. 42; experiment: as above; format: cell-based
[6] = tested on: Staphyloccocus aureus Smith; experiment: infection-preventive effects in mice (intraperitoneal infection, survival); format: in vivo, JCL:JCR type male mice; settings: Staphylococcus aureus, ip, 168 h; S. aureus Smith, 7.7 × 10^7 cells/mouse i.p., no mucin; compound hypodermically 1 hour after infection; 7-day survival
Proteus vulgaris No. 33 = experiment: minimum inhibitory concentration, agar plate dilution method; format: cell-based
[7] = tested on: Acinetobacter calcoaceticus No. 4; experiment: as above; format: cell-based
[8] = tested on: Pseudomonas aeruginosa K-13; experiment: infection-preventive effects in mice (intraperitoneal infection, survival); format: in vivo, JCL:JCR type male mice; settings: K13, ip, 168 h
Pseudomonas cepacia 23 = experiment: minimum inhibitory concentration, agar plate dilution method; format: cell-based
[9] = tested on: Serratia marcescens No. 16-2; experiment: as above; format: cell-based
[10] = tested on: Pseudomonas aeruginosa Y-1; experiment: as above; format: cell-based
[11] = tested on: Staphylococus aureus FDA 209-P JC-1; experiment: as above; format: cell-based; settings: Staphylococcus aureus, FDA209; S. aureus FDA 209-P JC-1; inoculated amount of cells 10^6 CFU/ml; Muller-Hinton agar; read-out: minimum inhibitory concentration (M.I.C.)
[12] = tested on: Pseudomonas aeruginosa Y-1; experiment: infection-preventive effects in mice (intraperitoneal infection, survival); format: in vivo, JCL:JCR type male mice; settings: Y1, ip, 168 h
[13] = NEK39, E. cloacae Nek 39, inoculated amount of cells 10^6 CFU/ml, Muller-Hinton agar, read-out: minimum inhibitory concentration (M.I.C.)
[14] = K13, P. aeruginosa K-13, inoculated amount of cells 10^6 CFU/ml, Muller-Hinton agar, read-out: minimum inhibitory concentration (M.I.C.)
[15] = K. pneumoniae No. 42, inoculated amount of cells 10^6 CFU/ml, Muller-Hinton agar, read-out: minimum inhibitory concentration (M.I.C.)
[16] = A. calcoaceticus No. 4, inoculated amount of cells 10^6 CFU/ml, Muller-Hinton agar, read-out: minimum inhibitory concentration (M.I.C.)
[17] = P. aeruginosa K-13, 3.0 × 10^4 cells/mouse i.p., with mucin, compound hypodermically 1 hour after infection, 7-day survival, read-out: ED50
[18] = Burkholderia cepacia, P. cepacia 23, inoculated amount of cells 10^6 CFU/ml, Muller-Hinton agar, read-out: minimum inhibitory concentration (M.I.C.)
[19] = NO.162, S. marcescens No. 16-2, inoculated amount of cells 10^6 CFU/ml, Muller-Hinton agar, read-out: minimum inhibitory concentration (M.I.C.)
[20] = Y1, P. aeruginosa Y-1, inoculated amount of cells 10^6 CFU/ml, Muller-Hinton agar, read-out: minimum inhibitory concentration (M.I.C.)
[21] = P. aeruginosa Y-1, 4.0 × 10^5 cells/mouse i.p., with mucin, compound hypodermically 1 hour after infection, 7-day survival, read-out: ED50
[22] = P. vulgaris No. 33, inoculated amount of cells 10^6 CFU/ml, Muller-Hinton agar, read-out: minimum inhibitory concentration (M.I.C.)

Structure (SMILES) | ED50 (Escherichia coli ML 4707 [2]) [mg/kg] | MIC (Escherichia coli ML 4707 [4]) [µg/mL] | ED50 [6] [mg/kg] | MIC [11] [µg/mL] | MIC [1, 13] [µg/mL] | MIC [3, 14] [µg/mL] | MIC [5, 15] [µg/mL] | MIC [7, 16] [µg/mL] | ED50 [8, 17] [mg/kg] | MIC (Pseudomonas cepacia 23; [18]) [µg/mL] | MIC [9, 19] [µg/mL] | MIC [10, 20] [µg/mL] | ED50 [12, 21] [mg/kg] | MIC (Proteus vulgaris No. 33; [22]) [µg/mL] | other results
CC(C)(O/N=C(\C(=O)N[C@@H]1C(=O)N2C(C(=O)[O-])=C(C[n+]3ccccc3)CS[C@H]12)c1csc(N)n1)C(=O)O [CAZ, ceftazidime, reference compound] | 0.73 | 0.2 (≈ 0.366 µM) | 17 | 12.5 (≈ 22.9 µM) |  |  |  |  |  |  |  |  |  |  | MIC ([1]; NEK39, read-out: minimum inhibitory concentration (M.I.C.)): 1.56 µg/mL (≈ 2.85 µM); MIC ([3]; K13, read-out: minimum inhibitory concentration (M.I.C.)): 3.13 µg/mL (≈ 5.73 µM); MIC ([5]; NO.42, read-out: minimum inhibitory concentration (M.I.C.)): 0.39 µg/mL (≈ 0.714 µM); MIC (Proteus vulgaris No. 33; NO.33, read-out: minimum inhibitory concentration (M.I.C.)): 0.1 µg/mL (≈ 0.183 µM); MIC ([7]; NO.4, read-out: minimum inhibitory concentration (M.I.C.)): 6.25 µg/mL (≈ 11.4 µM); ED50 [8]: 31 mg/kg; MIC (Pseudomonas cepacia 23; Burkholderia cepacia, 23, read-out: minimum inhibitory concentration (M.I.C.)): 1.56 µg/mL (≈ 2.85 µM); MIC ([9]; NO.162, read-out: minimum inhibitory concentration (M.I.C.)): 1.56 µg/mL (≈ 2.85 µM); MIC ([10]; Y1, read-out: minimum inhibitory concentration (M.I.C.)): 1.56 µg/mL (≈ 2.85 µM); ED50 [12]: 16 mg/kg
NC(=O)c1cc[n+](CC2=C(C(=O)O)N3C(=O)[C@@H](NC(=O)[C@@H](c4ccccc4)S(=O)(=O)[O-])[C@H]3SC2)cc1 [CFS, cefsulodin, reference compound] | > 100 | 50 (≈ 93.9 µM) |  | 3.13 (≈ 5.88 µM) | > 100 | 3.13 (≈ 5.88 µM) | > 100 | 50 (≈ 93.9 µM) | 39 | > 100 | > 100 | 1.56 (≈ 2.93 µM) | 13 |  | 
CO/N=C(\C(=O)N[C@@H]1C(=O)N2C(C(=O)O)=C(COC(C)=O)CS[C@H]12)c1csc(N)n1 [CTX, cefotaxime, reference compound] | 0.095 | ≤ 0.025 | 3.1 | 3.13 (≈ 6.87 µM) | 3.13 (≈ 6.87 µM) | 25 (≈ 54.9 µM) | 0.1 (≈ 0.22 µM) | 25 (≈ 54.9 µM) | > 100 | 3.13 (≈ 6.87 µM) | 6.25 (≈ 13.7 µM) | 12.5 (≈ 27.4 µM) | > 200 | 0.05 (≈ 0.11 µM) | 
Cc1cc(SCC2=C(C(=O)O)N3C(=O)[C@@H](NC(=O)/C(=N\OCc4cc(=O)c(O)cn4O)c4csc(N)n4)[C@H]3SC2)n2nc(C(=O)O)nc2n1 [Example 4, (6R, 7R)-7-[(Z)-2-(2-aminothiazol-4-yl)-2-(1,5-dihydroxy-4-pyridon-2-ylmethoxyimino)acetamido]-3(2-carboxy-5-methyl-s-triazolo[1,5-a]pyrimidin-7-ylthiomethyl)-3-cephem-4-carboxylic acid] | 0.16 | 0.1 (≈ 0.137 µM) | 8.7 | 12.5 (≈ 17.1 µM) | 0.39 (≈ 0.534 µM) | 0.2 (≈ 0.274 µM) | 0.2 (≈ 0.274 µM) | 12.5 (≈ 17.1 µM) | 12 | 0.2 (≈ 0.274 µM) | 0.39 (≈ 0.534 µM) | 0.39 (≈ 0.534 µM) | 4 | 0.1 (≈ 0.137 µM) | 
Cn1nnnc1SCC1=C(C(=O)O)N2C(=O)[C@@H](NC(=O)/C(=N\OCc3cc(=O)c(O)cn3O)c3csc(N)n3)[C@H]2SC1 [Example 5, (6R, 7R)-7-[(Z)-2-(2-aminothiazol-4-yl)-2-(1,5-dihydroxy-4-pyridon-2-ylmethoxyimino)acetamido]-3(1-methyl-1H-tetrazol-5-ylthiomethyl)-3-cephem-4carboxylic acid] | 0.12 | ≤ 0.025 |  | 50 (≈ 78.5 µM) | 0.39 (≈ 0.613 µM) | 0.1 (≈ 0.157 µM) | ≤ 0.025 | 1.56 (≈ 2.45 µM) | 18.9 | 0.05 (≈ 0.0785 µM) | 0.39 (≈ 0.613 µM) | 0.1 (≈ 0.157 µM) |  | ≤ 0.025 | 
Nc1nc(/C(=N/OCc2cc(=O)c(O)cn2O)C(=O)N[C@@H]2C(=O)N3C(C(=O)O)=C(CSc4nnnn4CCO)CS[C@H]23)cs1 [Example 6] | 0.13 | ≤ 0.025 | 42 | 25 (≈ 37.5 µM) | 0.78 (≈ 1.17 µM) | 0.2 (≈ 0.3 µM) | 0.05 (≈ 0.075 µM) | 3.13 (≈ 4.69 µM) | 4.6 | 0.1 (≈ 0.15 µM) | 0.39 (≈ 0.585 µM) | 0.1 (≈ 0.15 µM) | 1.4 | 0.05 (≈ 0.075 µM) | 
C[n+]1ccc(SCC2=C(C(=O)[O-])N3C(=O)[C@@H](NC(=O)/C(=N\OCc4cc(=O)c(O)cn4O)c4csc(N)n4)[C@H]3SC2)cc1 [Example 18, (6R, 7R)-7-[(Z)-2-(2-aminothiazol-4-yl)-2-(1,5-dihydroxy-4-pyridon-2-ylmethoxyimino)acetamido]-3-(1-methylpyridinium-4-ylthiomethyl)-3-cephem-4-carboxylat] | 0.034 | ≤ 0.025 | 2.9 | 6.25 (≈ 9.68 µM) | 0.39 (≈ 0.604 µM) | 0.78 (≈ 1.21 µM) | 0.05 (≈ 0.0774 µM) | 3.13 (≈ 4.85 µM) | 13 | 0.2 (≈ 0.31 µM) | 0.78 (≈ 1.21 µM) | 0.2 (≈ 0.31 µM) | 2 | 0.1 (≈ 0.155 µM) | 
C[n+]1ccc(SCC2=C(C(=O)[O-])N3C(=O)[C@@H](NC(=O)/C(=N\OCc4cc(=O)c(O)cn4O)c4csc(N)n4)[C@H]3SC2)c2c1CCC2 [Example 19, (6R, 7R)-7-[(Z)-2-(2-aminothiazol-4-yl)-2-(1,5-dihydroxy-4-pyridon-2-ylmethoxyimino)acetamido]-3-(2,3-cyclopenteno-1-methylpyridinium-4-ylthiomethy)-3-cephem-4-carboxylate] | 0.077 | 0.05 (≈ 0.0729 µM) |  | 12.5 (≈ 18.2 µM) | 0.2 (≈ 0.292 µM) | 1.56 (≈ 2.27 µM) | 0.1 (≈ 0.146 µM) | 6.25 (≈ 9.11 µM) | 9.6 | 0.39 (≈ 0.569 µM) | 1.56 (≈ 2.27 µM) | 0.78 (≈ 1.14 µM) | 7.8 | 0.2 (≈ 0.292 µM) | 
